Among the data in PubChem BioAssay AID179 (DTP/NCI, 2004) are EC50, IC50 and outcome values, retold here.

SMILES strings stand for the structures. The source made the active and inactive calls.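 The calls were made as follows: active = compounds giving half or more protection of infected cells from virus-caused growth loss, again on retest; inactive = the rest.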 Where a SMILES comes first, the peptide text is derived from it. [ ]: non-standard residue; d: D form. Ac5c = NC1(C(=O)O)CCCC1 Some results are limits rather than exact numbers.

The subject of the test is CEM cells HIV-1 protection, formazan growth assay. The experiment in a line: NCI AIDS Antiviral Assay. To be noted: for IC50: measured here: growth of uninfected CEM cells. Summed up: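 Category rules: moderately active means at least 50% protection on retest, and confirmed active means 100% protection reproducibly. The underlying data came from a formazan growth assay in HIV-1-infected CEM cells.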

`CCCCCCCCC/C=C/C=C/C(=O)NCC(=O)NC1C(O)C(O)C(Nc2ncnc3nc[nH]c23)OC1C(O)CO` (stereo not drawn): the EC50 was more than 43.7 µM and the IC50 was 0.158 µM. For `Oc1ccc(C(O)(c2ccccc2)c2ccccc2)cc1` the same measures were more than 67.6 µM and 41.7 µM. For `O=C(O)c1cc(O)c2ccc(N=Nc3ccc(/C=C/c4ccc(N=Nc5ccc6c(O)cc(C(=O)O)nc6c5O)cc4S(=O)(=O)O)c(S(=O)(=O)O)c3)c(O)c2n1` the same measures were 10.2 µM and 50.1 µM. Consider `Clc1ccccc1CN1COc2c(ccc3cccnc23)C1`, for which the EC50 is more than 30.9 µM and the IC50 is 1.58 µM.

Regarding `Cc1cc(-c2c(O)c3ccc4ccccc4c3oc2=O)no1`, the EC50 was more than 20 µM and the IC50 is more than 20 µM. Consider `O=[N+]([O-])c1ccc(SSc2ccc([N+](=O)[O-])cc2)cc1`, for which the EC50 was more than 200 µM, the result was inactive and the IC50 amounted to 24 µM. Turning to `Cc1cn(C2CC(C/C=[N+](\[O-])CC3OC(n4cc(C)c(=O)[nH]c4=O)CC3O[Si](C)(C)C(C)(C)C)C(CO[Si](C)(C)C(C)(C)C)O2)c(=O)[nH]c1=O` (stereo not drawn), the EC50 is more than 200 µM and the IC50 was determined as 36.3 µM. Taken in the same sequence, the figures for `O=C1/C(=C/c2ccccc2)NC(=S)N1CN1CCCCC1` were more than 200 µM and 33.9 µM. For `CCCCCCCCCCCC[N+]12CC[N+](CCN)(CC1)CC2` the same measures were more than 251 µM and 56.2 µM. As for `O=C(O)CCCO`, the EC50 was more than 200 µM and the IC50 is more than 200 µM. For `Cc1cc2cc(O)c3c(=O)c4c(O)cccc4c(=O)c3c2c(=O)c1=O`, the EC50 is more than 21.4 µM and the 50% inhibitory concentration (IC50) turned out to be 12 µM. As to `O=[N+]([O-])C(=C1NCCN1)C(Cl)=C(Cl)Cl`, the EC50 was more than 200 µM and the IC50 was more than 200 µM. Turning to `Cc1cc2c(c3c1c1ccccc1n3C)C(=O)c1ccccc1C2=O`, the EC50 was more than 1.7 µM and the IC50 is more than 1.7 µM. For the molecule `O=C(/C=C/c1ccccc1)CC(=O)CCC(=O)Nc1ccc(Cl)cc1`, the result was inactive.

`COc1c(Cc2cc(Cl)cc(S(=O)(=O)N(C)C)c2OC)cc(Cl)cc1S(=O)(=O)N(C)C`: the EC50 was more than 14.1 µM and the IC50 is more than 14.1 µM. With `COC(=O)C1(NC(=O)C(C)NC(=O)C(CCCCN)NC(=O)C(CC(C)C)NC(C)=O)CCCC1` (stereo not drawn) (Ac-LKA[Ac5c]-OMe; configuration not given here), the EC50 was more than 200 µM and the IC50 is more than 200 µM. On to `CN(C)P1(=O)NCC(C(C)(C)C)CO1` (stereo not drawn), for which the EC50 was more than 562 µM and the IC50 is more than 562 µM. Take `CN(C)CCOc1cccc(OCCN(C)C)n1`: the EC50 was more than 200 µM and the concentration for half-maximal inhibition (IC50) was more than 200 µM. Take `CCOC(=O)Nn1cnnc1Cc1ccccc1`: the EC50 is more than 200 µM and the IC50 was more than 200 µM. For `C=C(C)C(OC(C)=O)C(OC(C)=O)c1c(OC)ccc2ccc(=O)oc12` (stereo not drawn), the EC50 is more than 50.1 µM and the half-inhibitory concentration (IC50) is more than 50.1 µM. As to `COC(=O)Cc1cc(OC)c(OC)cc1Br`, the EC50 was more than 631 µM and the IC50 turned out to be 513 µM. For the molecule `COc1ccc(C(=O)Sc2ccccc2C(=O)Nc2ccc(S(=O)(=O)NC(C)=O)cc2)cc1`, the EC50 was 22.4 µM and the IC50 was more than 100 µM.

As to `Cc1cc(-c2ccco2)oc(=O)c1NC(=O)c1ccccc1`, the EC50 was more than 200 µM and the half-inhibitory concentration (IC50) worked out at 25.1 µM. As for `Cn1c(N=[N+]=[N-])cc(=O)n(C)c1=O`, the result was inactive. Consider `Cc1ccc(NC(=S)NNC(=O)c2cc(-c3ccccc3)nc3ccccc23)cc1C`, for which the EC50 is more than 200 µM and the IC50 turned out to be 12.6 µM. For the molecule `Cc1cc(C)nc(NS(=O)(=O)c2ccc(NC(=O)c3ccc4nc5ccccc5c(Nc5ccc(S(N)(=O)=O)cc5)c4c3)cc2)n1`, the EC50 is more than 200 µM and the IC50 turned out to be 39.8 µM. For `O=C1Nc2cc(Cl)ccc2N=CC1NC(=O)C(c1ccccc1)c1ccccc1Cl` (stereo not drawn) the same measures were more than 295 µM and 219 µM. For `COc1nc(=O)n(C)cc1B(O)O` the same measures were more than 200 µM and 32.4 µM. For `CSc1nc(-c2ccccc2)[nH]c(=O)n1` the same measures were more than 200 µM and more than 200 µM. As to `CN(C)CCNC1c2ccccc2CCc2ccccc21`, the result was inactive. Consider `COC(=O)N1CCCCC(CCC#CC[Si](C)(C)C)C1=O` (stereo not drawn), for which the EC50 was more than 120 µM and the concentration for half-maximal inhibition (IC50) stood at 110 µM. As for `Nc1nc(N)c(N=O)c(Nc2ccc(Br)c(Br)c2)n1`, the outcome was inactive. With `O=c1[nH]c(=O)n(C2OC(CO)C(O)C2O)c2ccsc12` (stereo not drawn), the EC50 is more than 200 µM and the IC50 is more than 200 µM. For `O=C(NCCCN1CCN(CCCNC(=O)c2ccc(N=Nc3ccccc3)cc2)CC1)c1ccc(N=Nc2ccccc2)cc1`, the EC50 was more than 100 µM and the half-inhibitory concentration (IC50) turned out to be 53.7 µM. On to `NC(=O)CSSCC(N)=O`, for which the EC50 was 21.4 µM and the half-inhibitory concentration (IC50) stood at 70.8 µM. As for `Cn1c(-c2cccc(N)c2)[n+](C)c2ccccc21`, the EC50 is more than 200 µM and the IC50 is 126 µM. For `CCCCCCCCCCCCCC1=NCC(C)(C)N1` the same measures were more than 93.3 µM and 20.4 µM. Taken in the same sequence, the figures for `CC(C)C(O)C(=O)C(F)C(C)C` (stereo not drawn) were more than 1410 µM and more than 1410 µM. Taken in the same sequence, the figures for `CCCC(=O)O[C@H]1[C@@H](OC(C)=O)C/C(C)=C\[C@@H]2OC(=O)[C@]3(C)OC23[C@@H](O)C2C3(C)OC3CC(OC(C)=O)[C@@]21C` (stereo partly drawn) were more than 117 µM and 32.4 µM. For `C1CC[C@H]2SSC3CCCC[C@H]3SSC2C1` (stereo partly drawn), the EC50 was more than 17.8 µM and the IC50 is more than 17.8 µM. For the molecule `CN(C)c1ccc(/C=c2\sc3nnc(Cc4ccccc4)n3c2=O)cc1`, the EC50 is more than 3.98 µM and the IC50 was more than 3.98 µM. Consider `O=Nc1c2n[nH]c1CCCCCCCCC2`, for which the EC50 was more than 309 µM and the IC50 is 44.7 µM. For `CCC1Sc2cc(OC)cc([N+](=O)[O-])c2NC1=O` (stereo not drawn) the same measures were more than 200 µM and more than 200 µM.

Turning to `CCCCS(=N)(=O)CCC(N)P(=O)(O)O` (stereo not drawn), the EC50 is more than 200 µM and the IC50 was more than 200 µM. For `C(=C\c1ccc2ccccc2c1Nc1ccccc1)/c1ccccc1`, the result was inactive. With `CC(C)(CN1CCCCC1)C(=O)CC(SCCS(=O)(=O)O)c1ccc(Br)cc1` (stereo not drawn), the EC50 is more than 427 µM and the IC50 was found to be 1.74 µM.

Take `CC1CC2OC(/C=C/C=C/C=C/C=C\C=C\C(O)=C3/C(=O)C(C(C)C)N(C)C3=O)C(O)C2O1` (stereo not drawn): the EC50 is more than 200 µM and the IC50 was found to be 107 µM. For `CCCC(=O)NC1Cc2cc(C)cc(C)c21` (stereo not drawn) the same measures were more than 45.7 µM and more than 45.7 µM. For `CCCCCOC(=O)c1ccc(NC(=O)CN(CC)CC)cc1` the same measures were more than 200 µM and 55 µM. For `COc1ccc(/C=C2\CN(C)C/C(=C\c3ccc(OC)cc3)C2=O)cc1` the same measures were more than 200 µM and 85.1 µM. `O=C1OCC2(CO)SC(c3ccccc3)NC12` (stereo not drawn): the EC50 was more than 525 µM and the IC50 is more than 525 µM. As for `CCSC(CC(O)C(O)C(O)CO)SCC` (stereo not drawn), the EC50 is more than 200 µM and the IC50 was more than 200 µM. Regarding `O=c1[nH]c2ccc(O)cc2o1`, the EC50 is more than 200 µM and the IC50 was more than 200 µM. Regarding `CN=c1nc2n3c(cccc3n1)NC(C)=N2`, the EC50 is more than 100 µM and the IC50 was more than 100 µM. As for `Cn1cnc([N+](=O)[O-])c1Sc1ncn[nH]1`, the EC50 was more than 1100 µM and the IC50 was 17.8 µM. Taken in the same sequence, the figures for `CN(/N=C/c1cccs1)c1ccc(Cl)cc1[N+](=O)[O-]` were more than 200 µM and 60.3 µM. Taken in the same sequence, the figures for `Oc1c(CN2CCOCC2)ccc2ccccc12` were more than 200 µM and 191 µM. As to `O=C(O)C1(c2ccccc2)CCCNCC1` (stereo not drawn), the EC50 is more than 6170 µM and the IC50 is more than 6170 µM. Regarding `COc1ccc(OCC(=O)O)c2c1CCC(C(C)C)C2=O` (stereo not drawn), the outcome was inactive. Still for that read-out and setting: under `COc1ccc(C(=C[N+](=O)[O-])c2ccc(OC)cc2)cc1` stands “inactive”. Consider `O=c1c(=O)c2cc(O)ccc12`, for which the EC50 was more than 1700 µM and the IC50 is 282 µM. For `CC(=O)NC(C=O)C(O[C@H](C)C(=O)NC(C)C(=O)NC(CCC(N)=O)C(=O)OCc1ccccc1)C(O)C(O)COC(=O)CCCCCNc1cccc2[nH]c3ccccc3c(=O)c12` (stereo partly drawn) the same measures were more than 204 µM and 126 µM.

Take `Cc1nn(-c2ccccc2)c2nc(N3CCOCC3)nnc12`: the outcome was inactive. Take `Cc1occc1C(=S)Nc1ccc(Cl)c(C(=O)OCC(C)C)c1`: the EC50 is 0.0123 µM and the 50% inhibitory concentration (IC50) was 18.6 µM. For `CC(C)C[P+](c1ccccc1)(c1ccccc1)c1ccccc1` the same measures were more than 20 µM and 2.19 µM. As for `CSc1nnc2sc3cc(C)ccc3n12`, the EC50 is more than 200 µM and the IC50 is 123 µM. Turning to `COC1C(=[N+]=[N-])C(=O)NC(=O)N1C1OC(COC(c2ccccc2)(c2ccccc2)c2ccccc2)C(O)C1O` (stereo not drawn), the EC50 was more than 18.2 µM and the 50% inhibitory concentration (IC50) is more than 18.2 µM. `O=C(C(=O)c1ccc(Cc2ccc(C(=O)C(=O)c3ccccc3)cc2)cc1)c1ccccc1`: the EC50 was more than 575 µM and the IC50 is more than 575 µM. Regarding `CCOC(=O)[C@H]1Nc2c(cccc2[N+](=O)[O-])C2c3ccccc3CC21` (stereo partly drawn), the EC50 was more than 15.5 µM and the IC50 was more than 15.5 µM. As for `N#CCCN(CCC#N)Cc1c(O)c(O)c(CN(CCC#N)CCC#N)c2ccccc12`, the EC50 was 115 µM and the IC50 is 126 µM. As for `CCN(CC)C(=O)COc1cc2c(O)c3c(O)c(C)c4c(c13)C(=O)C(C)(O/C=C/C(OC)C(C)C(OC(C)=O)C(C)C(O)C(C)C(O)C(C)/C=C/C=C(\C)C(=O)N2)O4` (stereo not drawn), the EC50 was more than 200 µM and the IC50 was 74.1 µM.

Consider `NS(=O)(=O)c1ccc(NC(=O)c2cccc3cc4ccccc4nc23)cc1`, for which the EC50 is more than 79.4 µM and the IC50 is 4.79 µM. Take `CCOC(CC(=O)NCCNC(C)=O)OCC`: the outcome was inactive.

By EC50 is commonly meant the concentration that produces a half-maximal response. What is called IC50 is the point on the concentration scale where inhibition reaches its midpoint. Read a low IC50 as greater potency.
